Experimental findings from patent US20190330224A1, “ACC INHIBITORS AND USES THEREOF” (Gilead Apollo, LLC, priority 2015, published 2019) are described below.

Assay [1] addresses Human ACC2 (Homo sapiens, UniProt O00763). Nature of the assay: In vitro ACC2 inhibition assay (ADP-Glo), human ACC2. Format: biochemical. The note with it: 5 nM ACC2, 20 μM ATP, 20 μM acetyl-CoA. For orientation: ADP-Glo turns the ADP formed in a reaction into a luminescent signal.
Assay [2] deals with C. albicans ATCC 90028. Nature of the assay: Anti-Fungal Activity Assay (broth microtiter MIC), C. albicans. In kind it is cell-based, Candida albicans. The note with it: 3 replicates, MIC recorded at 48 h; for MIC: Candida albicans, ATCC90028, 48 h, read-out: MIC C. albicans ATCC 90028. Summed up:
(§1)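 MIC taken as visual growth inhibition versus the growth control, mostly at 48 h (soraphen also at 24 h). Following CLSI M27-A3, colonies grown overnight at 35° C on Sabouraud dextrose agar were suspended in RPMI 1640+MOPS; test agents came from 1 mg/mL DMSO stocks.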

Assay [3] has as its system C. krusei ATCC 6258. Nature of the assay: Anti-Fungal Activity Assay (broth microtiter MIC), C. krusei. In kind it is cell-based, Candida krusei. The note with it: 3 replicates, MIC recorded at 48 h; for MIC: Pichia kudriavzevii, ATCC6258, 48 h, read-out: MIC C. krusei ATCC 6258. Summed up:
as §1

Assay [4] concerns C. parapsilosis ATCC 22019. In words: Anti-Fungal Activity Assay (broth microtiter MIC), C. parapsilosis. In kind it is cell-based, Candida parapsilosis. The note with it: 3 replicates, MIC recorded at 48 h; for MIC: Lodderomyces parapsilosis, ATCC22019, 48 h, read-out: MIC C. parapsilosis ATCC 22019. Summed up:
as §1

Assay [5] has as its target Fungal ACC2 (UniProt Q00955). The note with it: read-out: Fungal ACC2 (IC50, in vitro ACC2 inhibition).

Values after ≈ are worked out from the molar mass of the structure shown.

Sequence of Fungal ACC2 (Q00955 whole entry): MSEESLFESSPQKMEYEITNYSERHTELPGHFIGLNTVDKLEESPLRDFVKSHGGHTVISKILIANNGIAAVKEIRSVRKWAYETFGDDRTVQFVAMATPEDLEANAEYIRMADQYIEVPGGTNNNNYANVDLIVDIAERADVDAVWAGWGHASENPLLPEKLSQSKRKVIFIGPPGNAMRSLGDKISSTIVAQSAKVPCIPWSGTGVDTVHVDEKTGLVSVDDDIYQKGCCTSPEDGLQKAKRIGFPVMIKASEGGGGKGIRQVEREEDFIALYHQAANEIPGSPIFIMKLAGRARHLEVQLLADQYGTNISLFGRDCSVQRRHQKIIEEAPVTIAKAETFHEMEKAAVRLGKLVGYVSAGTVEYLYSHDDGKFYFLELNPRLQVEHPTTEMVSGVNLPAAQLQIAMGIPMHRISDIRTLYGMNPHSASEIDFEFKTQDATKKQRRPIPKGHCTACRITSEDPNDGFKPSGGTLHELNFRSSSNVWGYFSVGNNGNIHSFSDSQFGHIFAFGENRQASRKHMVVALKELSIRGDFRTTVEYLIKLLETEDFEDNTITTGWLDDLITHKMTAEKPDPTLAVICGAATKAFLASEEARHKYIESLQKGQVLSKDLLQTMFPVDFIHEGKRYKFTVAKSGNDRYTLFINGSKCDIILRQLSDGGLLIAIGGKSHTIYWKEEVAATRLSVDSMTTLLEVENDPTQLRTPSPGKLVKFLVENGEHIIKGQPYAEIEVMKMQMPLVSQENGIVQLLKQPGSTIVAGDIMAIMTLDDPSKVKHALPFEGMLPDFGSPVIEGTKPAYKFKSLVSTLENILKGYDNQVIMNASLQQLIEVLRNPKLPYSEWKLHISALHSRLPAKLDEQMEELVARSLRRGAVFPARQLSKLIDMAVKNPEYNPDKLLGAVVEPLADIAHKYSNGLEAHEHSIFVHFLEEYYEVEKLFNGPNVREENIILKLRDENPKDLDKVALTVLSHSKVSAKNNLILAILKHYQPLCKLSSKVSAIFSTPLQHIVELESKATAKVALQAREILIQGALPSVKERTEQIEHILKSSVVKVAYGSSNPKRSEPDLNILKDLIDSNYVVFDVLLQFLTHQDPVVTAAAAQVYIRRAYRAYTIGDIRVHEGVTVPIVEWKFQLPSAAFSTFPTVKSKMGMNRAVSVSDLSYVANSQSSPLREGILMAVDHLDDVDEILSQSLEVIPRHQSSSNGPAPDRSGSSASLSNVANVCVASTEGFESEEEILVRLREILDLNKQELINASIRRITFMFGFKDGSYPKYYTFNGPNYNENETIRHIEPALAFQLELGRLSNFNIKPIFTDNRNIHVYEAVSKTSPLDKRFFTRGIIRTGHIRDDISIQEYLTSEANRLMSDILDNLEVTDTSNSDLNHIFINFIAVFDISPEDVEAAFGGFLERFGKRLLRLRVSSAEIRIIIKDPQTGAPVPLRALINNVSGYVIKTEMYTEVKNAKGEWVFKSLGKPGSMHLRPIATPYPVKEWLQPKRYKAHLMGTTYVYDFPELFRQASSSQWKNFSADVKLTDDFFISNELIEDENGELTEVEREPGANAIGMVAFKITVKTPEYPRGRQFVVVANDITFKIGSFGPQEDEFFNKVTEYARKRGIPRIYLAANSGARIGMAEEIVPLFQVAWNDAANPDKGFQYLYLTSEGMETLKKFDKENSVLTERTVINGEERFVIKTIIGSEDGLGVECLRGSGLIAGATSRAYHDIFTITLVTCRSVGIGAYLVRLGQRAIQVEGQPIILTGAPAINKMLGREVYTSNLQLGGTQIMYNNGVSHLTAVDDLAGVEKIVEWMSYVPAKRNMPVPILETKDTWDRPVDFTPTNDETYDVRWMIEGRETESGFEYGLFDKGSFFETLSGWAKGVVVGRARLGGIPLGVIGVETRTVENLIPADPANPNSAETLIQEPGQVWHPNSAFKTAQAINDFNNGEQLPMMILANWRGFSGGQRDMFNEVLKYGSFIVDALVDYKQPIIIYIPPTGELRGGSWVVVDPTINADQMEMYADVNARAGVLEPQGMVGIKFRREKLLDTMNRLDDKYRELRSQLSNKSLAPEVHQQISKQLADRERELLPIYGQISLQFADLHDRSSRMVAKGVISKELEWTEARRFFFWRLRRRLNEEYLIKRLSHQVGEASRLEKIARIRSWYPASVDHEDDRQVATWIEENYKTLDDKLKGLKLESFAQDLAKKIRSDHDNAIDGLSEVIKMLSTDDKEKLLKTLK
Sequence of Human ACC2 (O00763 whole entry): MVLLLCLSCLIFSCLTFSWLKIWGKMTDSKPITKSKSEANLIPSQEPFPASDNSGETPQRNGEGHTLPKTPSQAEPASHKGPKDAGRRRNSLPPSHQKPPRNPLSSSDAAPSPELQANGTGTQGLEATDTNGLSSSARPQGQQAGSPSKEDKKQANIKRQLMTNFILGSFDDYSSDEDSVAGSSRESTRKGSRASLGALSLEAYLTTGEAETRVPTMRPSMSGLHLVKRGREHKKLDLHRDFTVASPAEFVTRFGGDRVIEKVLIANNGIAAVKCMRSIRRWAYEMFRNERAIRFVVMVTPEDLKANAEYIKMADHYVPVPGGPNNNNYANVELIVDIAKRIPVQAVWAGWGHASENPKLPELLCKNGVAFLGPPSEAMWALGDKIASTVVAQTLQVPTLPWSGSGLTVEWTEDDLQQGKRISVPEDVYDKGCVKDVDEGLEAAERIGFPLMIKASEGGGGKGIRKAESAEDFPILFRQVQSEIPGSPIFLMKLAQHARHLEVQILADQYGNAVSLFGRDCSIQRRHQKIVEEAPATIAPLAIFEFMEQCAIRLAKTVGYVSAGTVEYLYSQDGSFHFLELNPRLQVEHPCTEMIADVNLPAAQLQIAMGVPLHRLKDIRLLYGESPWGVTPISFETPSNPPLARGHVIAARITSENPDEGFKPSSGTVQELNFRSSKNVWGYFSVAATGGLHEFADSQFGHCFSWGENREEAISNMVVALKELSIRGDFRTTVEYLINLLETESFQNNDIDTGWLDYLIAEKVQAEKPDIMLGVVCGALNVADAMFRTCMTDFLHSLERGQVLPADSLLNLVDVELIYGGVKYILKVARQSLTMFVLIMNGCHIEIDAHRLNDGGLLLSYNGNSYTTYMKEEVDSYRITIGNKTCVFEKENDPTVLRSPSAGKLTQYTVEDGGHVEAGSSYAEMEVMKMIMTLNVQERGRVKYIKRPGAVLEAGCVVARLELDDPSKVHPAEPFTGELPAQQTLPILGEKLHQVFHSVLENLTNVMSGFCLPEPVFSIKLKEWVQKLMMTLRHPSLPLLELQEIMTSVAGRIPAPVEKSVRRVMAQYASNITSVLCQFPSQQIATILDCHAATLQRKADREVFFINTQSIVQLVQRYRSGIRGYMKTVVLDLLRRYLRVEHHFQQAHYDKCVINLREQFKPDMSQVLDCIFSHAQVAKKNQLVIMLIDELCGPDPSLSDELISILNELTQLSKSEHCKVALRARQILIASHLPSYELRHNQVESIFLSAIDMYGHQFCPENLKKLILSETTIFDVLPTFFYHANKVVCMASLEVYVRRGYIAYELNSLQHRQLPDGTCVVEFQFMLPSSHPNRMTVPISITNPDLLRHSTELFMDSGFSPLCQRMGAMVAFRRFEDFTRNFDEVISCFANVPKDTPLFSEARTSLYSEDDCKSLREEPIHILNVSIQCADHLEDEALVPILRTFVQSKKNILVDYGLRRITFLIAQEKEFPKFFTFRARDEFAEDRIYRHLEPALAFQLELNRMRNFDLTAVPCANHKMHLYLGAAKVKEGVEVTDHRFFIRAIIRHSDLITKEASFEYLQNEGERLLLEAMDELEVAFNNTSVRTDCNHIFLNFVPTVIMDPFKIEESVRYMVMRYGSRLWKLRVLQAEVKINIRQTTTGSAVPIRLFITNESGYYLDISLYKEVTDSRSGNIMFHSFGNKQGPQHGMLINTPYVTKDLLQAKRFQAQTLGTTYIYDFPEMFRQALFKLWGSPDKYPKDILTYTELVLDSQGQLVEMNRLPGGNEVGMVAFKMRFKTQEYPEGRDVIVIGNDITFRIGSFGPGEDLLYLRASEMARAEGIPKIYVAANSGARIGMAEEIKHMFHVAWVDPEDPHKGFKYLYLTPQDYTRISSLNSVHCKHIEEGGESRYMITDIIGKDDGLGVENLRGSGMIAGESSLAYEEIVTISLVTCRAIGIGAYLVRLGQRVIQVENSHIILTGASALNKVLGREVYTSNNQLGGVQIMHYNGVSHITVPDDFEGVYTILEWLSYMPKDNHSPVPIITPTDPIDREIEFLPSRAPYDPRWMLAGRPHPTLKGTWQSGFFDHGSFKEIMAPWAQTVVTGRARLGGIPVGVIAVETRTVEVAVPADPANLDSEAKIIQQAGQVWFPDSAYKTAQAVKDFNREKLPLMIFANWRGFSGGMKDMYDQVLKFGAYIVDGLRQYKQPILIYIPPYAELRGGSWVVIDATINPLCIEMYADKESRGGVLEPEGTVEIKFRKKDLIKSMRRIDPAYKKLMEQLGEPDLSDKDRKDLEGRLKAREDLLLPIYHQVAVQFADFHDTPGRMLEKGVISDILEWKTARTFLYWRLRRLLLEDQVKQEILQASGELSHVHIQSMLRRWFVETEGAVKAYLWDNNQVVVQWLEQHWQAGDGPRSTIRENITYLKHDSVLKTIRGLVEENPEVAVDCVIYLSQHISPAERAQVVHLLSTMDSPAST

Take `COCCO[C@@H](Cn1c(=O)n(C2CCCNC2=O)c(=O)c2c(C)c(-n3nccn3)sc21)c1cc(F)ccc1OC` (stereo partly drawn) [Compound I-13, 1-((R)-2-(5-fluoro-2-methoxyphenyl)-2-(2-methoxy-ethoxy)ethyl)-5-methyl-3-(2-oxopiperidin-3-yl)-6-(2H-1,2,3-triazol-2-yl)thieno[2,3-d]pyrimidine-2,4(1H,3H)-dione]: the IC50 was 10 to 100 nM in assay [1] and 0.7 to 2 nM in assay [5]. In addition, the MIC in assay [2], in assay [3] and in assay [4] was 2.1 to 4 µg/mL (≈ 3.67 to 6.99 µM) each time.
Consider `COCCO[C@@H](Cn1c(=O)n([C@]2(C)CCC(=O)NC2)c(=O)c2c(C)c(-n3nccn3)sc21)c1cc(F)ccc1OC` [Compound I-132, 1-((R)-2-(5-fluoro-2-methoxyphenyl)-2-(2-methoxy-ethoxy)ethyl)-5-methyl-3-((R)-3-methyl-6-oxopiperidin-3-yl)-6-(2H-1,2,3-triazol-2-yl)thieno[2,3-d]pyrimidine-2,4(1H,3H)-dione], for which the IC50 in assay [1] lay in the range of 10 to 100 nM; in assay [5], 0.7 to 2 nM. Besides, the MIC in assay [2], in assay [3] and in assay [4] was 2.1 to 4 µg/mL (≈ 3.58 to 6.82 µM) each time.
Regarding `COc1ccc(F)cc1[C@H](Cn1c(=O)n(C2CCCN(C)C2=O)c(=O)c2c(C)c(-n3nccn3)sc21)OCCO` (stereo partly drawn) [Compound I-18, 1-((R)-2-(5-fluoro-2-methoxyphenyl)-2-(2-hydroxy-ethoxy)ethyl)-5-methyl-3-(1-methyl-2-oxopiperidin-3-yl)-6-(2H-1,2,3-triazol-2-yl)thieno[2,3-d]pyrimidine-2,4(1H,3H)-dione], the IC50 was 10 to 100 nM in assay [1] and 2 to 10 nM in assay [5]. Besides, the MIC in assay [2], in assay [3] and in assay [4] was 2.1 to 4 µg/mL (≈ 3.67 to 6.99 µM) each time.
Consider `COc1ccc(F)cc1[C@H](COc1nc2sc(-n3nccn3)c(C)c2c(=O)n1[C@H]1CNC(=O)C1)OCCO` [Compound I-102, 2-((R)-2-(5-fluoro-2-methoxyphenyl)-2-(2-hydroxy-ethoxy)ethoxy)-5-methyl-3-((R)-5-oxopyrrolidin-3-yl)-6-(2H-1,2,3-triazol-2-yl)thieno[2,3-d]pyrimidin-4(3H)-one], for which the IC50 was over 1000 nM in assay [1] and 10 to 100 nM in assay [5]. The MIC in assay [2], in assay [3] and in assay [4] was 2.1 to 4 µg/mL (≈ 3.86 to 7.35 µM) throughout.
Turning to `COc1ccc(F)cc1[C@H](Cn1c(=O)n([C@@H]2CCNC2=O)c(=O)c2c(C)c(-c3ncco3)sc21)OCCO` [Compound I-69, 1-((R)-2-(5-fluoro-2-methoxyphenyl)-2-(2-hydroxy-ethoxy)ethyl)-5-methyl-6-(oxazol-2-yl)-3-((R)-2-oxopyrrolidin-3-yl)thieno[2,3-d]pyrimidine-2,4(1H,3H)-dione], the IC50 in assay [1] was in the range of 10 to 100 nM; in assay [5], 2 to 10 nM. Also, the MIC in assay [2], in assay [3] and in assay [4] was 2.1 to 4 µg/mL (≈ 3.86 to 7.35 µM) each time.
Regarding `COCCO[C@@H](Cn1c(=O)n([C@]2(C)CNC(=O)C2)c(=O)c2c(C)c(-n3nccn3)sc21)c1cc(F)ccc1OC` [Compound I-115, 1-((R)-2-(5-fluoro-2-methoxyphenyl)-2-(2-methoxy-ethoxy)ethyl)-5-methyl-3-((S)-3-methyl-5-oxopyrrolidin-3-yl)-6-(2H-1,2,3-triazol-2-yl)thieno[2,3-d]pyrimidine-24(1H,3H)-dione], the IC50 lay in the range of 10 to 100 nM in assay [1] and 0.7 to 2 nM in assay [5]. In addition, the MIC in assay [2], in assay [3] and in assay [4] was 2.1 to 4 µg/mL (≈ 3.67 to 6.99 µM) each time.
Consider `COCCO[C@@H](COc1nc2sc(-n3nccn3)c(C)c2c(=O)n1[C@@H]1CCN(C(=O)C(C)C)C1)c1cc(F)ccc1OC` [Compound I-101, 2-((R)-2-(5-fluoro-2-methoxyphenyl)-2-(2-methoxy-ethoxy)ethoxy)-3-((R)-1-isobutyrylpyrrolidin-3-yl)-5-methyl-6-(2H-1,2,3-triazol-2-yl)thieno[2,3-d]pyrimidin-4(3H)-one], for which the IC50 in assay [1] was over 1000 nM; in assay [5] it was 10 to 100 nM. In addition, the MIC in assay [2], in assay [3] and in assay [4] was 2.1 to 4 µg/mL (≈ 3.42 to 6.51 µM) in each case.
For the compound `COc1ccc(F)cc1[C@H](Cn1c(=O)n([C@@H]2CCCN(C)C2=O)c(=O)c2c(C)c(-n3nccn3)sc21)OCCC#N` [Compound I-117, 3-((R)-1-(5-fluoro-2-methoxyphenyl)-2-(5-methyl-3-((R)-1-methyl-2-oxopiperidin-3-yl)-2,4-dioxo-6-(2H-1,2,3-triazol-2-yl)-3,4-dihydrothieno[2,3-d]pyrimidin-1(2H)-yl)ethoxy)propanenitrile], the IC50 in assay [1] lay within 2 to 10 nM; in assay [5] it was 0.7 to 2 nM. Besides, the MIC in assay [2], in assay [3] and in assay [4] was 2.1 to 4 µg/mL (≈ 3.61 to 6.88 µM) in each case.
Take `COCCO[C@@H](Cn1c(=O)n([C@@]2(C)CCC(=O)NC2)c(=O)c2c(C)c(-n3nccn3)sc21)c1cc(F)ccc1OC` [Compound I-134, 1-((R)-2-(5-fluoro-2-methoxyphenyl)-2-(2-methoxy-ethoxy)ethyl)-5-methyl-3-((S)-3-methyl-6-oxopiperidin-3-yl)-6-(2H-1,2,3-triazol-2-yl)thieno[2,3-d]pyrimidine-2,4(1H,3H)-dione]: the IC50 in assay [1] lay within 100 to 1000 nM; in assay [5] it was 2 to 10 nM. The MIC in assay [2], in assay [3] and in assay [4] was 2.1 to 4 µg/mL (≈ 3.58 to 6.82 µM) in each case.
As to `COc1ccc(F)cc1[C@H](Cn1c(=O)n([C@H]2CCCNC2=O)c(=O)c2c(C)c(-n3nccn3)sc21)OCCC(=O)O` [Compound I-177, 3-((R)-1-(5-fluoro-2-methoxyphenyl)-2-(5-methyl-2,4-dioxo-3-((S)-2-oxopiperidin-3-yl)-6-(2H-1,2,3-triazol-2-yl)-3,4-dihydrothieno[2,3-d]pyrimidin-1 (2H)-yl)ethoxy)propanoic acid], the figures for the IC50 in assay [1] and in assay [5] were 10 to 100 nM and 2 to 10 nM, respectively. In addition, the MIC in assay [2], in assay [3] and in assay [4] was 2.1 to 4 µg/mL (≈ 3.58 to 6.82 µM) each time.
For the compound `COCCO[C@@H](Cn1c(=O)n([C@@]2(C)CCCN(C)C2=O)c(=O)c2c(C)c(-n3nccn3)sc21)c1cc(F)ccc1OC` [Compound I-130, 3-((S)-1,3-dimethyl-2-oxopiperidin-3-yl)-1-((R)-2-(5-fluoro-2-methoxyphenyl)-2-(2-methoxyethoxy)ethyl)-5-methyl-6-(2H-1,2,3-triazol-2-yl)thieno[2,3-d]pyrimidine-2,4(1H,3H)-dione], the IC50 in assay [1] lay within 100 to 1000 nM; in assay [5] it was 2 to 10 nM. The MIC in assay [2], in assay [3] and in assay [4] was 2.1 to 4 µg/mL (≈ 3.5 to 6.66 µM) throughout.
`COCCO[C@@H](Cn1c(=O)n([C@]2(C)CC(=O)N(C)C2)c(=O)c2c(C)c(-n3nccn3)sc21)c1cc(F)ccc1OC` [Compound I-120, 3-((R)-1,3-dimethyl-5-oxopyrrolidin-3-yl)-1-((R)-2-(5-fluoro-2-methoxyphenyl)-2-(2-methoxyethoxy)ethyl)-5-methyl-6-(2H-1,2,3-triazol-2-yl)thieno[2,3-d]pyrimidine-2,4(1H,3H)-dione]: the IC50 in assay [1] was 10 to 100 nM; in assay [5], 0.7 to 2 nM. Besides, the MIC in assay [2], in assay [3] and in assay [4] was 2.1 to 4 µg/mL (≈ 3.58 to 6.82 µM) in each case.
On to `COc1ccc(F)cc1[C@H](COc1nc2sc(-n3nccn3)c(C)c2c(=O)n1C1CC(=O)N(C)C1)OCCO` (stereo in doubt) [Compound I-113, 2-((R)-2-(5-fluoro-2-methoxyphenyl)-2-(2-hydroxy-ethoxy)ethoxy)-5-methyl-3-((S)-1-methyl-5-oxopyrrolidin-3-yl)-6-(2H-1,2,3-triazol-2-yl)thieno[2,3-d]pyrimidin-4(3H)-one], for which the IC50 in assay [1] is over 1000 nM; in assay [5] it was 10 to 100 nM. In addition, the “MIC C. albicans ATCC 90028” value in assay [2] was “C (provided an MIC of 2.1-4.0 μg/mL)”. Further, the “MIC C. krusei ATCC 6258” value in assay [3] is “C (provided an MIC of 2.1-4.0 μg/mL)”. Also, in assay [4], the “MIC C. parapsilosis ATCC 22019” value is “C (provided an MIC of 2.1-4.0 μg/mL)”.
As for `COCCO[C@@H](Cn1c(=O)n([C@@H]2CNC(=O)C2)c(=O)c2c(C)c(-n3nccn3)sc21)c1cc(F)ccc1OC` [Compound I-90, 1-((R)-2-(5-fluoro-2-methoxyphenyl)-2-(2-methoxy-ethoxy)ethyl)-5-methyl-3-((S)-5-oxopyrrolidin-3-yl)-6-(2H-1,2,3-triazol-2-yl)thieno[2,3-d]pyrimidine-2,4(1H,3H)-dione], the IC50 fell in the range of 2 to 10 nM in assay [1] and 0.7 to 2 nM in assay [5]. The MIC in assay [2], in assay [3] and in assay [4] was 2.1 to 4 µg/mL (≈ 3.76 to 7.16 µM) each time.
Regarding `COc1ccccc1[C@@H](O)Cn1c(=O)n([C@@H]2CCN(C)C2=O)c(=O)c2c(C)c(-n3nccn3)sc21` [Compound I-169, 1-((R)-2-hydroxy-2-(2-methoxyphenyl)ethyl)-5-methyl-3-((R)-1-methyl-2-oxopyrrolidin-3-yl)-6-(2H-1,2,3-triazol-2-yl)thieno[2,3-d]pyrimidine-2,4(1H,3H)-dione], the IC50 lay within 10 to 100 nM in assay [1] and 0.7 to 2 nM in assay [5]. Also, the MIC in assay [2], in assay [3] and in assay [4] was 2.1 to 4 µg/mL (≈ 4.23 to 8.06 µM) in each case.

As a reminder, the IC50 is the midpoint of a concentration-inhibition curve. A word on the MIC: it is the lowest concentration that inhibits growth of the organism.
